Reference: the NIST ThermoML archive (doi:10.1016/j.jct.2017.03.026)
“And” between values parts separate entries of the source, which are not always exact repeats. Equal entries are not always repeated.

Assay: molar heat capacity at constant pressure
Conditions: 101.33 kPa, Crystal, Small (less than 1 g) adiabatic calorimetry

O.O.O.O.O.O=S(=O)([O-])[O-].[Cu+2] [copper(II) sulfate pentahydrate]
Conditions | molar heat capacity at constant pressure
263.9 K | 273.18 J/K/mol
263.97 K | 273.31 J/K/mol
264.29 K | 274.33 J/K/mol
264.46 K | 276.88 J/K/mol
264.57 K | 275.1 J/K/mol
264.65 K | 275.18 J/K/mol
264.69 K | 262.84 J/K/mol
264.78 K | 276.45 J/K/mol
264.88 K | 264.12 J/K/mol
264.96 K | 275.1 J/K/mol
265.24 K | 276.28 J/K/mol
265.28 K | 276.6 J/K/mol
265.59 K | 277.08 J/K/mol
265.9 K | 279.45 J/K/mol
265.91 K | 277.83 J/K/mol and 277.48 J/K/mol
266.22 K | 277.65 J/K/mol
266.54 K | 279.67 J/K/mol
266.57 K | 280.8 J/K/mol
266.85 K | 280.57 J/K/mol
267.02 K | 283.47 J/K/mol
267.12 K | 265.84 J/K/mol
267.16 K | 281.25 J/K/mol
267.24 K | 282.99 J/K/mol
267.47 K | 265.72 J/K/mol
267.48 K | 282.69 J/K/mol
267.49 K | 288.14 J/K/mol
267.79 K | 284.49 J/K/mol
267.89 K | 286.74 J/K/mol
268.1 K | 286.29 J/K/mol
268.14 K | 289.09 J/K/mol
268.41 K | 287.96 J/K/mol
268.56 K | 290.56 J/K/mol
268.72 K | 290.51 J/K/mol
269.03 K | 293.88 J/K/mol
269.21 K | 298.25 J/K/mol
269.26 K | 299.3 J/K/mol
269.34 K | 297.25 J/K/mol
269.69 K | 302.97 J/K/mol
269.86 K | 308.74 J/K/mol
270 K | 267.7 J/K/mol and 309.44 J/K/mol
270.26 K | 267.96 J/K/mol
270.3 K | 319.67 J/K/mol
270.38 K | 339.72 J/K/mol and 332.91 J/K/mol
270.48 K | 333.13 J/K/mol
270.59 K | 334.95 J/K/mol
270.88 K | 351.88 J/K/mol
271.09 K | 383.64 J/K/mol
271.16 K | 376.43 J/K/mol
271.44 K | 383.42 J/K/mol
271.46 K | 344.42 J/K/mol
271.62 K | 269.24 J/K/mol
271.71 K | 298.82 J/K/mol
271.74 K | 277.83 J/K/mol
272.06 K | 278.7 J/K/mol
272.36 K | 280.4 J/K/mol
272.37 K | 278.52 J/K/mol
272.63 K | 281.05 J/K/mol
272.69 K | 278.7 J/K/mol
273.01 K | 279.65 J/K/mol
273.04 K | 280.4 J/K/mol
273.15 K | 269.83 J/K/mol and 270.1 J/K/mol
273.27 K | 284.34 J/K/mol
273.33 K | 280.47 J/K/mol
273.64 K | 279.37 J/K/mol
273.74 K | 281.2 J/K/mol
273.8 K | 282.84 J/K/mol
273.88 K | 270.91 J/K/mol
273.96 K | 280.1 J/K/mol
274.28 K | 278.85 J/K/mol
274.4 K | 281.05 J/K/mol
274.64 K | 282.74 J/K/mol
274.93 K | 283.52 J/K/mol
274.96 K | 280.85 J/K/mol
275.07 K | 282.49 J/K/mol
275.27 K | 285.02 J/K/mol
275.6 K | 285.39 J/K/mol
275.73 K | 282.32 J/K/mol
275.91 K | 281.82 J/K/mol
275.93 K | 272.18 J/K/mol
276.06 K | 284.92 J/K/mol
276.14 K | 271.78 J/K/mol
276.23 K | 282.52 J/K/mol
276.26 K | 287.86 J/K/mol
276.39 K | 283.24 J/K/mol
276.54 K | 281.92 J/K/mol
276.86 K | 283.12 J/K/mol
277.05 K | 284.94 J/K/mol
277.17 K | 283.69 J/K/mol
277.18 K | 287.21 J/K/mol
277.48 K | 283.57 J/K/mol
277.71 K | 285.67 J/K/mol
277.8 K | 284.34 J/K/mol
278.11 K | 284.89 J/K/mol
278.31 K | 288.04 J/K/mol
278.37 K | 287.66 J/K/mol
278.38 K | 274.55 J/K/mol
278.43 K | 285.39 J/K/mol
278.71 K | 274.33 J/K/mol
278.74 K | 285.79 J/K/mol
279.05 K | 283.84 J/K/mol
279.06 K | 284.24 J/K/mol
279.23 K | 285.22 J/K/mol
279.37 K | 283.12 J/K/mol
279.45 K | 283.07 J/K/mol
279.71 K | 282.87 J/K/mol
279.74 K | 283.84 J/K/mol
280 K | 275.2 J/K/mol
280.05 K | 283.69 J/K/mol
280.37 K | 283.64 J/K/mol
280.38 K | 282.97 J/K/mol
280.57 K | 284.27 J/K/mol
280.66 K | 275.03 J/K/mol
280.69 K | 284.49 J/K/mol
281.02 K | 283.67 J/K/mol
281.05 K | 283.87 J/K/mol
281.33 K | 283.77 J/K/mol
281.48 K | 276.46 J/K/mol
281.65 K | 284.82 J/K/mol
281.7 K | 285.57 J/K/mol
281.71 K | 285.19 J/K/mol
281.97 K | 283.94 J/K/mol
282.27 K | 286.17 J/K/mol
282.29 K | 285.04 J/K/mol
282.39 K | 285.19 J/K/mol
282.6 K | 284.74 J/K/mol
282.84 K | 286.54 J/K/mol
282.91 K | 276.63 J/K/mol
282.92 K | 285.39 J/K/mol
283.05 K | 284.89 J/K/mol
283.24 K | 285.54 J/K/mol
283.56 K | 286.89 J/K/mol
283.72 K | 285.69 J/K/mol
283.88 K | 287.24 J/K/mol
283.97 K | 287.54 J/K/mol
284.2 K | 286.71 J/K/mol
284.24 K | 278.43 J/K/mol
284.43 K | 286.89 J/K/mol
284.52 K | 286.41 J/K/mol
284.89 K | 287.61 J/K/mol
285.09 K | 286.69 J/K/mol
285.11 K | 288.04 J/K/mol
285.16 K | 279.3 J/K/mol
285.21 K | 287.79 J/K/mol
285.23 K | 288.34 J/K/mol
285.54 K | 287.61 J/K/mol
285.76 K | 287.46 J/K/mol
285.86 K | 289.01 J/K/mol
286.18 K | 287.86 J/K/mol
286.25 K | 289.39 J/K/mol
286.42 K | 287.76 J/K/mol
286.51 K | 286.29 J/K/mol
286.83 K | 288.26 J/K/mol
287 K | 280.48 J/K/mol
287.09 K | 288.31 J/K/mol
287.16 K | 288.41 J/K/mol
287.4 K | 289.81 J/K/mol
287.46 K | 280.82 J/K/mol
287.49 K | 289.64 J/K/mol
